Data as given in US20150366998A1, “ORAL DELIVERY OF DRUG ACTIVES IN LABORATORY ANIMALS USING FAST-DISSOLVING ORAL FILMS” (priority 2014, published 2015).
Entries after “also recorded” stand apart in the source; their conditions may differ.

How the values were obtained:
mice = conditions: cited from earlier work
[1] = 30-day oral film study: body weight, food intake, organ weight to tibia length ratio, tolerability; type: in vivo, mice
Description: In this study, there were 4 groups.
IVM was given for 30 days, 5 times per week for 6 weeks. […] After being presented with the tip of the gavage needle, mice would self-administer the oral films.
Ethanol intake was expressed as g/kg/24-h and summarized using means±SEM across groups. A two-way ANOVA was used to analyze 10E intake between the 4 groups over the 30 days of treatment. A one-way ANOVA was used to compare mean 10E intake, 10E preference, water intake, fluid intake, food intake, mouse weight, and organ weight/tibia length ratio across the 4 groups. GraphPAD Prism software (San Diego, Calif.) was used for data analysis.

female WT mice = assay: 24-h two-bottle choice paradigm, 10% ethanol in water (10E) vs water, IVM oral thin film or gavage; type: in vivo
[2] = doses needed to produce the anti-alcohol effects (Bortolato 2013)
[3] = IVM 0.21 mg oral thin film, 30 days, vs control and placebo groups

Question: With CC[C@H](C)[C@H]1O[C@]2(CC[C@@H]1C)C[C@@H]1C[C@@H](C/C=C(\C)[C@@H](O[C@H]3C[C@H](OC)[C@@H](O[C@H]4C[C@H](OC)[C@@H](O)[C@H](C)O4)[C@H](C)O3)[C@@H](C)/C=C/C=C3\CO[C@@H]4[C@H](O)C(C)=C[C@@H](C(=O)O1)[C@]34O)O2 [IVM, ivermectin] as the compound, how does the “rewarding properties (addiction liability)” value (mice; IVM regimen producing anti-alcohol effects) read?
Answer: did not exert rewarding properties

Question: And the “ethanol intake in mice” value (mice; acute and 7 day administration (Yardley 2012))?
Answer: significantly reduce

Question: And the anxiolytic-like effects (mice; [2])?
Answer: elicited anxiolytic-like effects

Question: What about the “overt signs of toxicity” value (mice; [2]) of the same compound?
Answer: did not induce overt signs of toxicity

Question: What about the “organ weight to tibia length ratio” value ([1]; IVM 0.21 mg oral thin film, 30 days, 6 organs analyzed, vs control and placebo groups) of the same compound?
Answer: no significant difference; also recorded: without significantly affecting

Question: And the “animal weight gain / change in body weight” value ([1]; IVM 0.21 mg oral thin film, 30 days, vs no action and placebo)?
Answer: similar; also recorded: without significantly affecting

Question: What about the “tolerability / overt signs of toxicity” value ([1]; chronic (30 day) oral administration of IVM via oral film) of the same compound?
Answer: well tolerated; also recorded: without causing overt signs of toxicity

Question: What about the “10E (alcohol) intake” value (female WT mice; IVM 0.21 mg oral thin film, 30 days, 5 times per week for 6 weeks, vs no action and placebo film) of the same compound?
Answer: drank consistently less 10E; also recorded: effective in reducing 10E intake; also recorded: significantly reduces

Question: What about the 10E preference (female WT mice; [3]) of the same compound?
Answer: significantly less; also recorded: significantly reduces

Question: What about the total fluid intake (female WT mice; [3]) of the same compound?
Answer: similar; also recorded: without significantly affecting

Question: And the “decrease of 10E intake compared to baseline” value (female WT mice; IVM 0.21 mg via fast dissolving oral film, 24-h two bottle choice, female WT mice, n=8, p<0.001 vs baseline)?
Answer: approximately 40%

Question: And the 10E intake (female WT mice; IVM 5 mg/kg, oral gavage (placebo gavage corn oil))?
Answer: decreased 10E intake
